# Columns and labels:
# HCT116 cells = assay: HCT116 cell number (Hoechst nuclear stain) on drug-loaded microarray; assay type: cell-based, human
# From the text: The following figures (FIGS. 5.1 to 5.4) are micrographs taken from drug-eluting cellular microarrays, manufactured as described herein. The images are taken from individual cellular islands from the same array under various drug-loading conditions over a period of three days. HCT116 cells are nuclear stained with Hoechst for easy visibility. […] The water phase for this experiment was loaded with azide at various concentrations in addition to a control with no drug loaded. Azide is a useful probe reagent, mutagen, and preservative. Azide inhibits cytochrome oxidase by binding irreversibly to the heme cofactor in a process similar to the action of carbon monoxide. As such, it is expected to induce necrosis in cells at physiologically relevant doses.
# To establish microarray fidelity, microarrays were manufactured as described above. HCT116 cells were then seeded over microarrays and incubated for 24 or 72 h. Microarrays were fixed in 4% paraformaldehyde and stained with Hoechst 34580 dye.
# Camptothecin-loaded microarrays were stained with Annexin V (BD Pharminigen), fixed in 4% paraformaldehyde, and placed in PBS with Hoechst dye 34580 (Invitrogen, USA) for 30 min. Azide-loaded microarrays were fixed with 4% paraformaldehyde and incubated with PBS containing Hoechst 34580 dye. Finally, nutlin-3a-loaded microarrays were fixed with 4% paraformaldehyde, stained with BrdU (BD Bioscience, San Jose, Calif.), and incubated in PBS containing Hoechst 34580 dye. All arrays were mounted with Fluoro-Gel (Electron Microscope Sciences, Hatfield, Pa.) and imaged using an Axiovert 200M microscope (Carl Zeiss, Oberkochen, Germany). Analysis was performed with Axiovision (Carl Zeiss, Oberkochen, Germany) by quantifying, in each drug-eluting island, the area of fluorescence and reported as relative fluorescence intensity (RFI).
# [1] = Loading efficiency of small molecules in microarrayed EVA films; assay type: physicochemical
# Procedure: To embed molecules into the polymer matrix, they were first dissolved in an appropriate solvent, depending on their respective hydrophobicity. A stock solution of azide (99%, Acros), a hydrophilic molecule, was dissolved in dH2O whereas Nutlin-3a (EMD Chemicals, Gibbstown, N.J.) and camptothecin (Sigma), both hydrophobic molecules, were dissolved in DMSO. Dissolved drugs were then added to 5% EVA at a 1:10 ratio of solvent:EVA. Prior to printing, polymer mixtures were vortexed for 30 s and then homogenized for 1 min before being loaded onto the source plate of the robotic mini-arrayer.
# To determine the loading efficiency of factors, polymer formulations were made as described above. Films derived from 100 μl EVA loaded with factors were then made on glass coverslips and allowed to dry overnight under vacuum. Films were removed from the glass substrates and weighed. Films were washed briefly with PBS before being placed in 1 ml toluene to dissolve the polymer. Samples were then analyzed using a Nanodrop-ND-1000 spectrophotometer. Standard curves were generated for each factor, and loading efficiency was calculated as the percent of drug embedded in the polymer compared to the theoretical drug concentration.
structure (smiles),measurement,setting,value
[N-]=[N+]=[N-] [Azide],response of HCT116 cell density on azide-loaded ELVAX islands,"HCT116 cells; 37.5 and 75 mM azide, 5-68 h",dose-dependent response
same,cell counts of HCT116 on drug-loaded film after attachment,"HCT116 cells; 1 h after seeding, across loading concentrations, ANOVA p=0.490",No statistical difference
same,HCT116 cell numbers vs drug loading concentration,HCT116 cells; after 24 h,decreased with increasing loading concentrations
same,Loading efficiency (%),[1],73 +/− 8%

# From patent US9557319B2, “Cell-based arrays, methods of making, and methods of using” (University of Florida Research Foundation, Inc., priority 2010, dated 2017)
